{"source": "patent US12297349B2", "about": "“Transparent resin composition and transparent resin molded article” (Sony Group Corporation, priority 2016, dated 2025)", "assay": "Dissolved amount (solubility) in pure water", "details": "stirring for 30 minutes, filtering with 0.5 μm filter, insoluble matter measured", "protocol": "The content of the water-insoluble organic sulfonic acid and/or the metal salt thereof is 0.01 to 3.0 pts·mass to 100 pts·mass of the aromatic polycarbonate resin. […] The dissolved amount per 100 g of pure water can be calculated by mixing 3 g of sample with 100 g of pure water, stirring for 30 minutes, and then filtering it with 0.5 μm filter to measure the insoluble matter.", "data": [{"compound": "O=S(=O)([O-])C(F)(F)C(F)(F)C(F)(F)C(F)(F)F.[K+]", "note": "[b-2, potassium perfluorobutanesulfonate]", "values": [{"measurement": "A dissolved amount (solubility)", "value": "4.6 g/100 g of pure water"}]}, {"compound": "Cc1ccc(S(=O)(=O)[O-])cc1.[Na+]", "note": "[b-3, sodium paratoluenesulfonic acid]", "values": [{"measurement": "A dissolved amount (solubility)", "value": "24.0 g/100 g of pure water"}]}]}
